In PubChem BioAssay AID977613 (Broad Institute, 2014):
Calls of active or inactive are those of the source. No rule for the calls is given here.

Test system: Broad 7084-01 inhibitor HTS, set 2
Test: single-concentration hits, screen 7084 set 2 (AID 977613);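 also: host cells are infected with parasite promastigotes that become internalized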

Structure (SMILES)	active concentration
CCCN1[C@@H]2c3ccc(C4=CCCCC4)c(=O)n3C[C@@H]2[C@@H](CO)[C@@H]1C(=O)NC1Cc2ccccc2C1	> 10 µM (inactive)
CN1C[C@@H](O)COC[C@@H]2O[C@@H](CC(=O)NC3CCCC3)CC[C@H]21	> 10 µM (inactive)
COc1ccc2c3c(n(C)c2c1)[C@@H](CO)NCC31CCN(Cc2cc(F)ccc2F)CC1	> 10 µM (inactive)
COc1ccccc1C(=O)Nc1ccc2c(c1)C(=O)N(C)[C@H]1CC[C@@H](CC(=O)NCCc3ccncc3)O[C@H]1CO2	> 10 µM (inactive)
COC(=O)[C@@H]1[C@@H](CO)[C@@H]2Cn3c(cccc3=O)[C@H]1N2Cc1nccs1	> 10 µM (inactive)
CCNC(=O)C[C@@H]1CC[C@H]2[C@@H](COC[C@@H](O)CN2C(=O)C2CC2)O1	> 10 µM (inactive)
O=C(CN1CCOCC1)N1CC(=O)N2[C@H](C1)[C@@H](c1ccc(-c3cccc(F)c3)cc1)[C@@H]2CO	> 10 µM (inactive)
Cc1cccc(S(=O)(=O)N2CC[C@H]3[C@@H](CO)N(C)c4ccc(-c5ccccc5F)cc4[C@H]32)c1	> 10 µM (inactive)
C[C@H](NC(=O)[C@H]1[C@H](CO)[C@H]2Cn3c(ccc(/C=C/c4ccccc4)c3=O)[C@@H]1N2)c1ccccc1	> 10 µM (inactive)
CC(C)(O)C#Cc1ccc([C@@H]2[C@H](CO)N3CCCCN(S(C)(=O)=O)C[C@@H]23)cc1	> 10 µM (inactive)
O=C(Nc1ccc(F)cc1)N1[C@@H](CO)[C@@H]2c3ccccc3NC[C@@H]21	> 10 µM (inactive)
OC[C@@H]1[C@@H](c2ccccc2)C2(CN(Cc3nccs3)C2)N1CCC(F)(F)F	> 10 µM (inactive)
COC(=O)c1ccc(CN2CC(=O)N3[C@H](CO)[C@H](c4ccc(-c5cccnc5)cc4)[C@H]3C2)cc1	> 10 µM (inactive)
N#C[C@@H]1[C@H](c2ccccc2-c2cccc(F)c2)[C@H](CO)N1S(=O)(=O)c1cccc(F)c1	> 10 µM (inactive)
CCCC#Cc1ccc([C@@H]2[C@H]3CN(C(=O)CN4CCOCC4)CC(=O)N3[C@H]2CO)cc1	> 10 µM (inactive)
O=C(C[C@H]1CC[C@@H]2[C@H](COC[C@H](O)CN2S(=O)(=O)c2ccccc2)O1)Nc1ccccc1	> 10 µM (inactive)
COc1ccccc1CNC(=O)C[C@@H]1CC[C@@H]2[C@H](COC[C@@H](O)CN2C(=O)Nc2ccccc2)O1	> 10 µM (inactive)
N#C[C@@H]1[C@@H](c2ccccc2-c2ccc(F)cc2)[C@H](CO)N1C(=O)Cc1cccnc1	> 10 µM (inactive)
CCCNC(=O)N1[C@@H]2Cn3c(ccc(-c4ccccc4OC)c3=O)[C@H]1[C@@H](C(=O)NCC)[C@@H]2CO	> 10 µM (inactive)
O=C([C@@H]1[C@@H](CO)[C@@H]2Cn3c(ccc(C4=CCCC4)c3=O)[C@H]1N2C(=O)c1ccncc1)N1CCOCC1	> 10 µM (inactive)
O=C(Nc1nccs1)[C@@H]1[C@@H](CO)[C@@H]2Cn3c(cccc3=O)[C@H]1N2C(=O)C1CCCC1	> 10 µM (inactive)
O=S(=O)(c1ccccc1)N1C[C@@H]2[C@H](c3ccccc31)[C@H](CO)N2Cc1ccccn1	> 10 µM (inactive)
O=C(c1cnccn1)N1CC[C@@H]2[C@H](CO)Nc3ccc(-c4ccccc4F)cc3[C@@H]21	> 10 µM (inactive)
COCC(=O)N1[C@H](CO)[C@H]2c3ccccc3NC[C@H]21	> 10 µM (inactive)

Structure (SMILES)	active concentration
COc1ccc(C#Cc2ccc([C@H]3[C@@H](CO)N4C(=O)CN(C(=O)c5ccc(F)cc5)C[C@H]34)cc2)cc1	> 10 µM (inactive)
CC(C)C#Cc1ccc([C@H]2[C@@H](CO)N3C(=O)CN(C(=O)Cc4ccccc4)C[C@H]23)cc1	> 10 µM (inactive)
O=C(C1CCOCC1)N1CC2(C1)[C@H](c1ccccc1)[C@H](CO)N2CCC(F)(F)F	> 10 µM (inactive)
COc1ccc(-c2ccc3c(c2)[C@@H]2[C@@H](CCN2C(=O)CN2CCOCC2)[C@H](CO)N3)cc1	> 10 µM (inactive)
Cn1cnc(CCNC(=O)C[C@@H]2CC[C@H]3[C@@H](COC[C@H](O)CN3C(=O)C3CC3)O2)c1	> 10 µM (inactive)
CC(C)NC(=O)N1CC2(C1)[C@H](c1ccccc1)[C@H](CO)N2CCC(F)(F)F	> 10 µM (inactive)
O=S(=O)(c1cccs1)N1CCCCN2[C@H](C1)[C@H](c1ccc(/C=C/c3ccccc3)cc1)[C@@H]2CO	> 10 µM (inactive)
COc1ccc2c3c([nH]c2c1)[C@@H](CO)N(Cc1ccccc1F)CC31CN(CC2CC2)C1	> 10 µM (inactive)
O=S(=O)(c1ccc(F)cc1)N1CCCCN2[C@H](CO)[C@@H](c3ccc(-c4cncnc4)cc3)[C@H]2C1	> 10 µM (inactive)
N#C[C@H]1[C@H](c2ccccc2-c2ccccc2F)[C@@H](CO)N1C(=O)C1CCC1	> 10 µM (inactive)
CN(C)CC#Cc1ccc([C@H]2[C@H]3CN(C(=O)Nc4ccccc4F)CCCCN3[C@H]2CO)cc1	> 10 µM (inactive)
COc1ccc2c3c(n(C)c2c1)[C@H](CO)N(C(=O)Nc1ccc(F)cc1)CC31CCN(C(=O)c2ccc3c(c2)OCO3)CC1	> 10 µM (inactive)
O=C(C[C@@H]1CC[C@@H]2[C@H](COC[C@H](O)CN2C(=O)c2ccc3c(c2)OCO3)O1)NC1CCC1	> 10 µM (inactive)
COc1ccccc1S(=O)(=O)N1CC[C@H]2[C@H](CO)Nc3ccc(-c4ccc(C#N)cc4)cc3[C@H]21	> 10 µM (inactive)
COC(=O)c1ccc(CN2CC(=O)N3[C@@H](CO)[C@H](c4ccc(-c5cccnc5)cc4)[C@@H]3C2)cc1	> 10 µM (inactive)
COc1ccc2c3c([nH]c2c1)[C@@H](CO)N(C(=O)c1ccc(F)cc1)CC31CCN(S(=O)(=O)c2cccs2)CC1	> 10 µM (inactive)
COc1cccc(CN2CC3(CN(C)C3)c3c([nH]c4cc(OC)ccc34)[C@H]2CO)c1	> 10 µM (inactive)
O=C([C@H]1[C@H](CO)[C@H]2Cn3c(ccc(-c4ccccc4F)c3=O)[C@@H]1N2C(=O)C1CCC1)N1CCCCC1	> 10 µM (inactive)
CCS(=O)(=O)N1CCC2(CC1)CN[C@@H](CO)c1[nH]c3cc(OC)ccc3c12	> 10 µM (inactive)
CCS(=O)(=O)N1CC(=O)N2[C@H](CO)[C@@H](c3ccc(C#CC4CCCCC4)cc3)[C@H]2C1	> 10 µM (inactive)
COc1ccc(NC(=O)N2CCCCN3[C@H](C2)[C@@H](c2ccc(-c4ccccc4F)cc2)[C@@H]3CO)cc1	> 10 µM (inactive)
C/C=C/c1ccc([C@@H]2[C@H](CO)N3C(=O)CN(Cc4ccc(F)cc4)C[C@@H]23)cc1	> 10 µM (inactive)
CN1C(=O)c2cc(NC(=O)Nc3ccccc3Cl)ccc2OC[C@H]2O[C@H](CC(=O)NCCCN3CCOCC3)CC[C@@H]21	> 10 µM (inactive)
COc1cccc(-c2ccc3c(c2)[C@H]2[C@H](CCN2S(=O)(=O)c2ccccc2C)[C@H](CO)N3)c1	> 10 µM (inactive)

Structure (SMILES)	active concentration
CCCNC(=O)N1[C@H](C#N)[C@H](c2ccccc2-c2ccc(C)cc2)[C@@H]1CO	> 10 µM (inactive)
O=S(=O)(c1ccc(F)cc1)N1C[C@H]2[C@@H](c3ccccc31)[C@@H](CO)N2Cc1ccccc1Cl	> 10 µM (inactive)
COc1ccc2c3c([nH]c2c1)[C@H](CO)N(C(=O)Nc1ccc(F)cc1)CC31CCN(CC2CCOCC2)CC1	> 10 µM (inactive)
C/C=C/c1ccc([C@@H]2[C@@H](CO)N3CCCCN(S(=O)(=O)c4ccc(OC)cc4)C[C@H]23)cc1	> 10 µM (inactive)
N#Cc1cccc(-c2ccc3c(c2)[C@H]2[C@H](CCN2S(=O)(=O)c2ccc(F)cc2)[C@@H](CO)N3)c1	> 10 µM (inactive)
O=C(C[C@@H]1CC[C@@H]2[C@H](COC[C@@H](O)CN2Cc2cccc(C(F)(F)F)c2)O1)NCc1ccccc1	> 10 µM (inactive)
COc1ccc(-c2ccccc2[C@@H]2[C@@H](CO)N(C(=O)NC(C)C)[C@H]2C#N)cc1	> 10 µM (inactive)
O=C1CNC[C@H]2[C@H](c3ccc(C4=CCCC4)cc3)[C@H](CO)N12	> 10 µM (inactive)
CN(C)CC(=O)N1CCCCN2[C@H](CO)[C@H](c3ccc(/C=C/c4ccccc4)cc3)[C@H]2C1	< 10 µM
COc1cccc(C(=O)Nc2ccc3c(c2)C(=O)N(C)[C@@H]2CC[C@H](CC(=O)NCCCN4CCOCC4)O[C@H]2CO3)c1	> 10 µM (inactive)
CCC(=O)N1[C@@H](CO)[C@@H]2c3ccccc3N(S(=O)(=O)c3ccccc3C)C[C@@H]21	> 10 µM (inactive)
O=C(Cc1ccncc1)N1CC(=O)N2[C@@H](CO)[C@H](c3ccc(Br)cc3)[C@@H]2C1	> 10 µM (inactive)
COc1ccccc1-c1ccccc1[C@@H]1[C@@H](C#N)N(C(=O)C2CCOCC2)[C@H]1CO	> 10 µM (inactive)
O=C(C[C@@H]1CC[C@@H]2[C@H](COC[C@H](O)CN2CC2CCOCC2)O1)NCC1CCCCC1	> 10 µM (inactive)
CCS(=O)(=O)Nc1ccc2c(c1)C(=O)N(C)[C@H]1CC[C@H](CC(=O)N[C@@H]3CCN(Cc4ccccc4)C3)O[C@H]1CO2	> 10 µM (inactive)
CN1C(=O)c2cc(NC(=O)C3CCOCC3)ccc2OC[C@@H]2O[C@@H](CC(=O)NCCc3ccncc3)CC[C@H]21	> 10 µM (inactive)
Cc1cccc(S(=O)(=O)N2C[C@@H](O)COC[C@@H]3O[C@H](CC(=O)Nc4ccccc4)CC[C@H]32)c1	> 10 µM (inactive)
Cc1noc(C)c1NC(=O)Nc1ccc2c(c1)C(=O)N(C)[C@H]1CC[C@H](CC(=O)NCc3ccc(Cl)cc3)O[C@@H]1CO2	> 10 µM (inactive)
CN1c2ccc(Br)cc2[C@H]2[C@H](CCN2C(=O)Nc2ccccc2F)[C@H]1CO	> 10 µM (inactive)
CN1C(=O)c2cc(NC(=O)c3cccc(F)c3)ccc2OC[C@H]2O[C@@H](CC(=O)NCC3CCCCC3)CC[C@@H]21	> 10 µM (inactive)
CC(C)NC(=O)Nc1ccc2c(c1)C(=O)N(C)[C@H]1CC[C@@H](CC(=O)NCc3ccc(F)cc3)O[C@H]1CO2	> 10 µM (inactive)
OC[C@@H]1[C@H](c2ccc(C3=CCCC3)cc2)[C@H]2CN(Cc3ccncc3)CCCCN12	> 10 µM (inactive)
